One compound from ChEMBL document CHEMBL2331182, “Discovery of a small-molecule antiviral targeting the HIV-1 matrix protein” (Bioorg Med Chem Lett, 2013) can be followed below.

The IC50 is the concentration that gives 50% inhibition. Lower therefore signals greater potency. One may read the Kd as the constant that tells how readily two partners part at equilibrium. The low end stands for higher affinity, the high end for lower affinity.

Experiment [1] addresses T1, Structural capsid protein (Human immunodeficiency virus 1, UniProt Q76129). The experiment can be described thus: Inhibition of HIV1 capsid.
For experiment [2], the target named is T1, Structural capsid protein. The experiment can be described thus: Binding affinity to HIV1 capsid.

Each structure is given as a SMILES string.

T1 sequence (Q76129 whole entry): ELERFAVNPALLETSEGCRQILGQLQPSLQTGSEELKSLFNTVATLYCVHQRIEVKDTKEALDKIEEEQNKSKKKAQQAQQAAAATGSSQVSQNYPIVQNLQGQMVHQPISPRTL

As for `Cc1ccc(NC(=O)NCCSCc2ccc(CN(C)C)o2)cc1Cl`, it took 60 µM to reach half-maximal inhibition in experiment [1] (IC50). The compound also had a Kd in experiment [2] of 800 µM.
